# Assay results reported in PMC5399635 (The Journal of Pharmacology and Experimental Therapeutics, 2017).
# What was measured:
# [1] = test system: panel of more than 300 receptors, ion channels, transporters, and enzymes; assay: Binding screen across a panel of more than 300 targets; details: 10 µM; apart from opioid receptors; data not shown
# [2] = Quantitative whole body autoradiography; assay type: in vivo, rat; details: for Concentration of radioactivity, Blood / Concentration of radioactivity, Brain / Concentration of radioactivity, Large intestine wall / Concentration of radioactivity, Liver / Concentration of radioactivity, Spinal cord / Concentration of radioactivity, Fetus (whole) / Concentration of radioactivity, Placenta / Concentration of radioactivity, Uterus: single oral 50 mg/kg
# Procedure: Quantitative whole body autoradiography was conducted to track the overall distribution of a single oral dose of radiolabeled naloxegol in adult male and pregnant female rats.
# Seven male Lister hooded rats (8–9 weeks old at dosing, body weight 255–290 g each) and 5 time-mated female Sprague-Dawley rats (body weight 347–392 g each) were supplied by Charles River UK Limited (Margate, Kent, UK). All animals were acclimated to the experimental unit before the study (males, 6 days; females, 13 days).
# Animals were fasted overnight before dose administration. […] Male rats were administered a mean (±S.D.) of 5.62 (±0.06) MBq/kg; female rats received a mean of 5.60 (±0.03) MBq/kg.
# One male rat was humanely euthanized by CO2 narcosis at 0.5, 1, 4, 24, 48, 168, and 504 hours postdose, respectively. One time-mated female rat was humanely euthanized at 0.5, 1, 4, 24, and 48 hours postdose, respectively.
# After removal of the whiskers, legs, and tails, the carcasses were frozen by immersion in a mixture of solid CO2 in hexane for approximately 30 minutes and then embedded in a block of carboxymethylcellulose, which was frozen in the same way. After equilibration at approximately –20°C, sagittal sections (30 μm thick) were taken using a whole body cryomicrotome (Leica Biosystems GmbH, Nussloch, Germany). The sections were freeze dried in a chamber of the cryomicrotome before storage at ambient temperature. Carcasses were stored frozen (–20°C) until analysis. After analysis, samples were returned to storage at –20°C. Freeze-dried whole body sections were stored at room temperature.
# The radioactivity present in various organs and tissues in whole body sections was determined by QWBA. After exposure, the imaging plates were scanned using a phosphorimage analyzer. Tissues and organs of interest were quantified using AIDA image analysis software (version 4.06; Raytest Isotopenmeßgeräte GmbH, Straubenhardt, Germany). For analysis, representative whole body sections were placed into close contact with phosphor screens and left for a 7-day period. A set of external standards were also exposed on each phosphor screen. These standards were prepared from blood spiked with a serial dilution of a ^14C-labeled reference solution, which was dispensed into holes drilled into a block of carboxymethylcellulose, frozen, and then sectioned in the same way as the animal samples.
# After the phosphor screen was scanned, an image of the radioactivity in the sample was stored digitally. For quantitative analysis, six background areas were defined on each stored phosphor screen image. The software automatically calculated the mean background and subsequently subtracted this from all standards and tissues analyzed. A regression coefficient was derived by comparing the response of each standard with the nominal disintegrations per minute per gram over the range of radioactive concentration used and forcing the response curve through the origin. The concentrations of the standards used were in the range of 0.09 to 826.31 μg Eq/g. The response curve was linear over these concentrations and was assumed to be linear to the limit of reliable determination.
# Organs or tissues from representative autoradiograms were identified and integrated. The back-calculated tissue concentrations (μg Eq/g) were then determined by the software. The limit of reliable measurement for each storage screen was calculated from the assessment of the mean background of the plate and taken to be three times the S.D. of the mean above background. At the specific activity used in this study, the limit of reliable measurement was in the range of 0.06 to 0.16 μg Eq/g.
# [3] = test system: peripheral and central effects of morphine; parameters: method as in Eldon et al., 2015; details: healthy male volunteers administered morphine; ref Eldon et al., 2015; cited from earlier work
# other transporters = test system: other transporters; parameters: method as in earlier work; details: ref 2013 AstraZeneca unpublished data; cited from earlier work
# in vitro = details: human; for Papp A→B at 2 h, 10 μM: Caco-2, pH 7.4, Papp A→B; for Papp B→A at 2 h, 10 μM: Caco-2, pH 7.4, Papp B→A
# [4] = In situ rat brain perfusion model; details: 30 s perfusion, test compound 20 μM, atenolol 50 μM, antipyrine 5 μM, mean ± S.D.
# human µ-opioid receptor = human µ-opioid receptor (Homo sapiens, UniProt P35372); assay: [35S]GTPγS binding, Schild-type antagonism of morphine (CHO-K1 membranes); details: versus morphine; pooled 3 experiments
# Chain of human µ-opioid receptor (P35372 whole entry): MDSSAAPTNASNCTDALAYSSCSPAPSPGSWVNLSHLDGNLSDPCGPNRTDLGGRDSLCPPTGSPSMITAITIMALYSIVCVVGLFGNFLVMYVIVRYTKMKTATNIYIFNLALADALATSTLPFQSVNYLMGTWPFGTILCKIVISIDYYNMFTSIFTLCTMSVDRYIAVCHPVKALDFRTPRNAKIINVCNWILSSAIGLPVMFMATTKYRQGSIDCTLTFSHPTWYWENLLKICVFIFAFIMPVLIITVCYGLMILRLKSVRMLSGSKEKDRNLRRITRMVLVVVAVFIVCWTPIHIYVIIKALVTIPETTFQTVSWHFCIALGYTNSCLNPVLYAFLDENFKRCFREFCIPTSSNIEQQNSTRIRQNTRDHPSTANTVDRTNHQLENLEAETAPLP
# [5] = no P-gp inhibitor, mean of 3 experiments
smiles,measurement,setting,value
"C=CCN1CC[C@]23c4c5ccc(O)c4O[C@H]2[C@@H](OCCOCCOCCOCCOCCOCCOCCOC)CC[C@@]3(O)[C@H]1C5 [Naloxegol, naloxegol]",inhibition of binding across panel,[1],≤ 30%
same,"Concentration of radioactivity, Blood","[2]; male rat, 0.5 h",3.03 μg Eq/g
same,"Concentration of radioactivity, Brain","[2]; male rat, 0.5 h",BLQ
same,"Concentration of radioactivity, Large intestine wall","[2]; male rat, 0.5 h",8.83 μg Eq/g
same,"Concentration of radioactivity, Liver","[2]; male rat, 0.5 h",43.40 μg Eq/g
same,"Concentration of radioactivity, Spinal cord","[2]; male rat, 0.5 h",0.06 μg Eq/g
same,"Concentration of radioactivity, Blood","[2]; male rat, 1 h",4.11 μg Eq/g
same,"Concentration of radioactivity, Brain","[2]; male rat, 1 h",0.21 μg Eq/g
same,"Concentration of radioactivity, Large intestine wall","[2]; male rat, 1 h",14.09 μg Eq/g
same,"Concentration of radioactivity, Liver","[2]; male rat, 1 h",66.49 μg Eq/g
same,"Concentration of radioactivity, Spinal cord","[2]; male rat, 1 h",0.15 μg Eq/g
same,"Concentration of radioactivity, Blood","[2]; male rat, 4 h",2.14 μg Eq/g
same,"Concentration of radioactivity, Brain","[2]; male rat, 4 h",0.14 μg Eq/g
same,"Concentration of radioactivity, Large intestine wall","[2]; male rat, 4 h",12.09 μg Eq/g
same,"Concentration of radioactivity, Liver","[2]; male rat, 4 h",58.74 μg Eq/g
same,"Concentration of radioactivity, Liver","[2]; male rat, 24 h",4.61 μg Eq/g
same,"Concentration of radioactivity, Liver","[2]; male rat, 48 h",7.74 μg Eq/g
same,"Concentration of radioactivity, Liver","[2]; male rat, 168 h",1.03 μg Eq/g
same,"Concentration of radioactivity, Blood","[2]; pregnant female rat, 0.5 h",12.38 μg Eq/g
same,"Concentration of radioactivity, Brain","[2]; pregnant female rat, 0.5 h",0.34 μg Eq/g
same,"Concentration of radioactivity, Fetus (whole)","[2]; pregnant female rat, 0.5 h",3.10 μg Eq/g
same,"Concentration of radioactivity, Large intestine wall","[2]; pregnant female rat, 0.5 h",23.61 μg Eq/g
same,"Concentration of radioactivity, Liver","[2]; pregnant female rat, 0.5 h",68.67 μg Eq/g
same,"Concentration of radioactivity, Placenta","[2]; pregnant female rat, 0.5 h",21.09 μg Eq/g
same,"Concentration of radioactivity, Spinal cord","[2]; pregnant female rat, 0.5 h",0.24 μg Eq/g
same,"Concentration of radioactivity, Uterus","[2]; pregnant female rat, 0.5 h",31.19 μg Eq/g
same,"Concentration of radioactivity, Blood","[2]; pregnant female rat, 1 h",7.80 μg Eq/g
same,"Concentration of radioactivity, Brain","[2]; pregnant female rat, 1 h",0.15 μg Eq/g
same,"Concentration of radioactivity, Fetus (whole)","[2]; pregnant female rat, 1 h",1.99 μg Eq/g
same,"Concentration of radioactivity, Large intestine wall","[2]; pregnant female rat, 1 h",25.20 μg Eq/g
same,"Concentration of radioactivity, Liver","[2]; pregnant female rat, 1 h",56.01 μg Eq/g
same,"Concentration of radioactivity, Placenta","[2]; pregnant female rat, 1 h",12.89 μg Eq/g
same,"Concentration of radioactivity, Spinal cord","[2]; pregnant female rat, 1 h",0.10 μg Eq/g
same,"Concentration of radioactivity, Uterus","[2]; pregnant female rat, 1 h",82.21 μg Eq/g
same,"Concentration of radioactivity, Blood","[2]; pregnant female rat, 4 h",6.92 μg Eq/g
same,"Concentration of radioactivity, Brain","[2]; pregnant female rat, 4 h",0.28 μg Eq/g
same,"Concentration of radioactivity, Fetus (whole)","[2]; pregnant female rat, 4 h",2.23 μg Eq/g
same,"Concentration of radioactivity, Large intestine wall","[2]; pregnant female rat, 4 h",37.45 μg Eq/g
same,"Concentration of radioactivity, Liver","[2]; pregnant female rat, 4 h",58.78 μg Eq/g
same,"Concentration of radioactivity, Placenta","[2]; pregnant female rat, 4 h",14.78 μg Eq/g
same,"Concentration of radioactivity, Spinal cord","[2]; pregnant female rat, 4 h",0.12 μg Eq/g
same,"Concentration of radioactivity, Uterus","[2]; pregnant female rat, 4 h",185.03 μg Eq/g
same,"Concentration of radioactivity, Fetus (whole)","[2]; pregnant female rat, 24 h",0.17 μg Eq/g
same,"Concentration of radioactivity, Liver","[2]; pregnant female rat, 24 h",4.42 μg Eq/g
same,"Concentration of radioactivity, Placenta","[2]; pregnant female rat, 24 h",0.16 μg Eq/g
same,"Concentration of radioactivity, Uterus","[2]; pregnant female rat, 24 h",19.04 μg Eq/g
same,"Concentration of radioactivity, Fetus (whole)","[2]; pregnant female rat, 48 h",BLQ
same,"Concentration of radioactivity, Liver","[2]; pregnant female rat, 48 h",2.68 μg Eq/g
same,"Concentration of radioactivity, Placenta","[2]; pregnant female rat, 48 h",BLQ
same,"Concentration of radioactivity, Uterus","[2]; pregnant female rat, 48 h",4.00 μg Eq/g
same,time to elimination of radioactivity from most tissues,"[2]; rat, naloxegol-derived radioactivity",≤ 24 h
same,effect on morphine-induced miosis,[3],no change in morphine-induced miosis
same,effect on orocecal transit time,[3],reduced orocecal transit time
same,substrate status for other transporters,other transporters,not a substrate of other transporters
same,"Papp A→B at 2 h, 10 μM",in vitro; Cyclosporin A,1.8 ×10⁻⁶ cm/s
same,"Papp A→B at 2 h, 10 μM","in vitro; Elacridar, 0.5 μM",2.3 ×10⁻⁶ cm/s
same,"Papp A→B at 2 h, 10 μM","in vitro; Verapamil, 100 μM",1.3 ×10⁻⁶ cm/s
same,"Papp A→B at 2 h, 10 μM",in vitro; [5],0.7 ×10⁻⁶ cm/s
same,"Papp B→A at 2 h, 10 μM",in vitro; Cyclosporin A,1.8 ×10⁻⁶ cm/s
same,"Papp B→A at 2 h, 10 μM","in vitro; Elacridar, 0.5 μM",2.5 ×10⁻⁶ cm/s
same,"Papp B→A at 2 h, 10 μM","in vitro; Verapamil, 100 μM",1.7 ×10⁻⁶ cm/s
same,"Papp B→A at 2 h, 10 μM",in vitro; [5],8.4 ×10⁻⁶ cm/s
same,Brain Uptake,[4],4.1 ± 1.4 pmol/g brain/s
same,Schild slope,human µ-opioid receptor,–1.03
